One experiment deals with TGFβ2. Put plainly: qRT-PCR of TGFβ transcripts in dermal papilla isolated from HFOCs. The class given is cell-based, human. The conditions noted are these: DP isolated from human HFs cultured ex vivo for 48 h; DHT-treated (1 μM) vs. untreated HFOCs. From the text: Concentration and purity are ascertained in a NanoDrop spectrophotometer.
(§1) In addition, only anagen hair follicles are used.
(§2) Hair growth percentages is normalized to day 0.

For experiment [1], the system named is phosphorylated SMAD2 (p-SMAD2). The experiment in a line: Western blot of phospho-SMAD2 in hair bulbs of HFOCs. The class given is cell-based, human. To be noted: untreated vs DHT-treated HFOCs, 72 h. The procedure: For western blot, hair bulbs are dissected from HFOCs treated with DMSO, DHT and Galunisertib for 72 h. Upon rinse in PBS, hair bulbs are lysed in Laemmli buffer (without bromophenol blue) with Halt Protease Inhibitor Cocktail and Halt Phosphatase Inhibitor Cocktail, and lysates are sonicated. Lysates from 10 hair bulbs are used for each condition tested. Total extracts are then loaded in SDS-polyacrylamide gels and transferred onto nitrocellulose membranes for western blot analysis. Membranes are blocked during 1 h with TBS+5% BSA. Primary and secondary antibodies are diluted in TBS+2% BSA accordingly to Supplementary Table 1. Signal is detected using Clarity Western ECL Substrate reagent. A GS-800 calibrated densitometer with Quantity One 1-D Analysis Software 4.6 (Bio-Rad Laboratories) is used for quantitative analysis of protein levels.
as §1, §2
(Immunoblotting shows a protein as a band on a membrane.)

The test system of the next experiment is TGFβ1. The conditions noted are these: DP isolated from human HFs cultured ex vivo for 48 h; DHT-treated (1 μM) vs. untreated HFOCs. The protocol: (§3) For RNA isolation and Quantitative Real-Time PCR (qPCR), Qiagen RNeasy kit (Qiagen, Germany) is used to isolate RNA. Concentration and purity are ascertained in a NanoDrop spectrophotometer. 600 ng of RNA are reverse transcribed into complementary DNA with iScript™ cDNA Synthesis Kit. Quantitative real-time polymerase chain reactions (qPCRs) are performed in a CFX384 Touch™ Real-Time PCR Detection System (Bio-Rad Laboratories). 10 μl reaction mixes are prepared consisting of iTaq™ Universal SYBR® Green Supermix (Bio-Rad Laboratories), forward and reverse primers (at 125 nM each) and cDNA (30 ng). The amplification program used is: 95° C. for 3 min, followed by 39 cycles of 95° C. for 10 s, 60° C. for 35 s, and melt curve from 55° C. to 95° C. with 0.5° C. increment for 10 s. All primers are designed to span at least one […]. Transcript levels are quantified by the 2-ΔΔCt method. ΔCt values are determined by subtracting the geometrical mean of the Ct values for GAPDH and UBQ from the mean target gene Ct value.
(§4) Hair grafts are obtained from male patients aged between 18-55 years with informed consent. A total of 10-20 micrografts are harvested from the occipital scalp of patients diagnosed with androgenic alopecia and undergoing autologous hair transplantation by the routine FUE technique.

In a further experiment the test system is TGFβ3. The conditions noted are these: DP isolated from human HFs cultured ex vivo for 48 h; DHT-treated (1 μM) vs. untreated HFOCs. The procedure: as §3, §4

Consider `C[C@]12CCC(=O)C[C@@H]1CC[C@@H]1[C@@H]2CC[C@]2(C)[C@@H](O)CC[C@@H]12` [DHT, dihydrotestosterone], for which the “TGFβ2 transcript levels in DP” value in the experiment with TGFβ2 is recorded as “slightly increased”. Besides, in experiment [1], the “p-SMAD2 protein levels in hair bulbs” value is listed as “equivalent”. The “TGFβ1 transcript levels in DP” value with TGFβ1 is reported as “remaining unchanged”. Moreover, in the experiment with TGFβ3, the “TGFβ3 transcript levels in DP” value is listed as “remaining unchanged”.

(Values after patent US20260256771A1, “GALUNISERTIB FOR USE IN THE TREATMENT OF ANDROGENIC ALOPECIA” (SAÚDE VIÁVEL, S.A., priority 2022, published 2026).)
